# According to article PMC7116876, “Mechanistic Insights into Regulation of the ALC1 Remodeler by the Nucleosome Acidic Patch” (Cell reports, 2020):
# Key:
# [1] = test system: APM/APM nucleosomes (H2A E61A, E64A, D90A, E92A); assay: Fluorescence anisotropy binding assay, APM/APM nucleosomes; set-up: species or system Xenopus laevis histones; conditions: 10 nM TAMRA-labeled peptide, 15 mM HEPES pH 7.5, 30°C, one representative curve of two independent experiments
# Text: (§1) The DNA constructs used in the nucleosome assembly for single-molecule and ensemble remodeling studies comprised the Widom 601 nucleosome positioning sequence ([Lowary and Widom, 1998]) as well as either 3 bp or 12 bp of linker DNA on one side and 78 bp on the other side (for the single-molecule remodeling construct) or 63 bp of linker DNA on one side and no linker DNA on the other side (for the ensemble remodeling construct). All constructs were 5’-labeled with Cy5 on the short linker end. The constructs for single-molecule experiments additionally featured a biotin on the long linker end. […] The DNA constructs for the assembly of nucleosomes used in fluorescence anisotropy experiments and ATPase assays comprised the Widom 601 positioning sequence without additional linker DNA (for the fluorescence anisotropy construct) or 63 bp of linker DNA on one side and no linker DNA on the other side (for the ATPase assay construct). […]
# For binding studies, we used nucleosomes without linker DNA (WT/WT or APM/APM) as well as the following synthetic peptides (as detailed above): LANA peptide-TAMRA, ALC1^RLS peptide-TAMRA, and ALC1^RLS peptide. Fluorescence anisotropy measurements were carried out at 30°C using a CLARIOstar microplate reader (BMG Labtech). Binding curves were recorded in black low-volume 384-well assay plates (Corning). […]
# [2] = molecular target: T1, WT/WT nucleosomes (acidic patch) (Xenopus laevis, UniProt P02281+P06897+P62799); assay: Competition fluorescence anisotropy with LANA-TAMRA pre-bound to WT/WT nucleosomes; format: binding, Xenopus laevis histones; conditions: LANA-TAMRA 10 nM, WT/WT nucleosomes 100 nM, varying unlabeled ALC1^RLS peptide, 30°C; n = 3 independent experiments
# T1 construct: made in house; host or cells: E. coli BL21 (DE3) pLysS
# Description: For binding studies, we used nucleosomes without linker DNA (WT/WT or APM/APM) as well as the following synthetic peptides (as detailed above): LANA peptide-TAMRA, ALC1^RLS peptide-TAMRA, and ALC1^RLS peptide. Fluorescence anisotropy measurements were carried out at 30°C using a CLARIOstar microplate reader (BMG Labtech). Binding curves were recorded in black low-volume 384-well assay plates (Corning). Individual wells contained 10 nM peptide and the indicated concentration of nucleosomes in 15 mM HEPES pH 7.5,1 mM EDTA, 5% glycerol, and 1 mM DTT. Dissociation constants were determined by fitting the fluorescence anisotropy data to the solution of a quadratic equation derived from the binding isotherm, which took into account depletion of peptide: r=αA+KD+B−A+KD+B^2−4AB , where r is the fluorescence anisotropy, A represents the total concentration of peptide, a is a scaling factor, KD is the dissociation constant, and B is the total concentration of titrated ligand. […]
# For fluorescence anisotropy binding experiments, the reported values represent the mean ± SEM from 3 independent experiments. […] For ensemble nucleosome remodeling time courses, each experimental condition was recorded in 3 independent experiments, and representative remodeling time courses are shown. […]
# [3] = test system: ALC1-catalyzed remodeling of WT/WT nucleosomes; assay: Ensemble FRET nucleosome remodeling, WT/WT nucleosomes; format: biochemical, Homo sapiens ALC1; Xenopus laevis histones; conditions: WT/WT nucleosomes 10 nM preincubated with 80 μM LANA peptide 5 min room temperature; 80 nM ALC1^fl R860W (Fig 1C) or 80 nM ALC1^fl activated with PARP1/NAD+ (Fig S1C)
# Text: cDNAs for ALC1 and PARP1 were of Homo sapiens origin. Histone proteins (recombinantly expressed in E. coli) were of Xenopus laevis origin. Cell lines as well as growth conditions are described in the Method Details.
# Oligonucleotides used in this study were ordered from IDT (see Table S3). The ALC1^fl (16-879) construct contains the human ALC1 sequence and a 6xHis-tag, as previously published ([Lehmann et al., 2017]). All point mutations were generated by PCR-based site-directed mutagenesis. The plasmid for human PARP1 (1-1014) with an N-terminal 6xHis-tag was a kind gift from John M. Pascal ([Langelier et al., 2017]).
# as §1, with “construct).” for “construct). All constructs were 5’-labeled with Cy5 on the short linker end. The constructs for single-molecule experiments additionally featured a biotin on the long linker end.”
compound,measurement,setting,value
CC[C@H](C)[C@H](NC(=O)[C@H](CC(C)C)NC(=O)[C@@H](NC(=O)[C@H](CO)NC(=O)CNC(=O)[C@H](CCCCN)NC(=O)[C@H](CC(N)=O)NC(=O)[C@H](CCCNC(=N)N)NC(=O)[C@H](CC(C)C)NC(=O)[C@H](CO)NC(=O)[C@H](CCCNC(=N)N)NC(=O)CNC(=O)[C@H](CCC(=O)O)NC(=O)[C@H](CCC(N)=O)NC(=O)[C@H](CO)NC(=O)[C@H](C)NC(=O)[C@H](CCCCN)NC(=O)[C@@H](N)CCC(=O)O)C(C)C)C(=O)N1CCC[C@H]1C(=O)NCC(=O)N[C@@H](CC(C)C)C(=O)N[C@@H](CCCCNC(=O)c1ccc2c(c1)C(=O)OC21c2ccc(N(C)C)cc2Oc2cc(N(C)C)ccc21)C(=O)O [ALC1^RLS-TAMRA],affinity for nucleosomes with AP mutations on both H2A/H2B dimers,[1],substantially reduced affinity
"EKASQEGRSLRNKGSVLIPGL [ALC1^RLS peptide, N-terminal regulatory linker segment (residues 604–624) of ALC1, unlabeled]",effect on fluorescence anisotropy of pre-formed LANA-TAMRA peptide-nucleosome complex,[2],caused a decrease in its fluorescence anisotropy in a dose-dependent manner
"MAPPGMRLRSGRSTGAPLTRGS [LANA peptide, peptide derived from the latency-associated nuclear antigen (LANA) of Kaposi's sarcoma-associated herpesvirus, reference compound]",effect on ALC1-catalyzed remodeling,[3],completely abrogated ALC1-catalyzed remodeling
